Data reported in US20050236004A1, “Healthcare model of wellness” (priority 2004, published 2005).

How the values were obtained:
[1] = cited from earlier work
[2] = first principles model of blood serum level of a drug over time
Source text: The relevant internal variables for the modal of FIG. 18 are: • Ingested amount=I • Blood amount=B
The relevant parameters for the model are: • Digestion rate=κ • Absorption rates=α,β • Conversion rate=γ • Excretion rate=ω
The model equations are then: dI/dt=−αI−κ dB/dt−−ωB−γ+αl+κ−βD dD/dt=κ−βD In most cases, these parameters are not available directly, but most infer them from values such as the excretion half-life T1/2 and the time of maximum blood levels, Tmax. For most medications, the digestion and conversion rates are small or zero, and, as such, it is only necessary to estimate the absorption and excretion rates α and ω. […] The system of equations is then given by: dI/dt=αl dB/dt=−ωB+αl which can be solved exactly for the case of a single ingested amount I0 by converting to matrix form: dV/dt=MV where V the column vector [I,B] and M is the coefficient matrix [−α,0][α,−ω]. This matrix equation has the solution: V=exp(Mt)V0 Where exp(Mt) is the exponentiation of M as a matrix taylor series, and V0 is the initial vector. Inserting M=PDP^−1 where D is a diagonal matrix in the taylor series gives: exp(Mt)=Pexp(Dt)P^−1 The eigenvalues are easily given by setting det(D−λI)=0 giving (−α−λ)(−ω−λ)=0, and so λ=−α,−ω D=[−α,0][0,−ω] Solving for the eigenvectors of comprising P gives the following relationship: P=[ω−α)/α,0][1,1] […]

[3] = in vivo

absorption coefficient α ([2]; computed from Tmax by iterative formula): 1.293 h⁻¹
excretion coefficient ω ([2]; ln(2)/half-life): 0.08547 h⁻¹
Cmax/AUC [3]: 0.1089
Compound: Cc1onc(-c2ccccc2)c1-c1ccc(S(N)(=O)=O)cc1 [BEXTRA, Valdecoxib]
Cmin ([1]; at 14 day equilibrium): 21.9 ng/mL
Area_Under_Curve(24 hr) ([1]; given value, 24 hr): 1479.0 ng·h/mL
Cmax ([1]; given value): 161.1 ng/mL
Elimination Half-Life ([1]; given value): 8.11 h
Tmax ([1]; given value): 2.25 h
